In brackets after ≈: the same amount, converted by molar mass. Like-named read-outs stand apart in the source and are kept apart here.
Columns and labels:
[1] = ABTS radical scavenging assay; details: for antioxidant (scavenging) activity in the ABTS assay: compounds 50 µL, 1 mM in MeOH, ABTS solution 60 µL, absorbance at 734 nm
Protocol: (§1) The antioxidant activities of the OSe compounds were intensively investigated because these are usually the cause of their chemopreventive potency. Their redox activities were evaluated via DPPH and ABTS assays, using ascorbic acid as the standard. We spectrophotometrically measured the antioxidant efficiency of the OSe compounds by their ability to decolorise the DPPH^. and ABTS^. radicals at […] (Figure 2).
(§2) The compounds’ antioxidant properties were assessed by in vitro bioassays using DPPH and ABTS, following the reported method. Details are in the Supplementary Materials.
(§3) Figure 4 Estimation of the OSe compounds’ redox activities via DPPH and ABTS experiments. All tests are mean ± S.D. ABTS experiment: absorbance was followed at 734 nm for OSe compounds (50 µL, 1 mM in MeOH) and ABTS solution (60 µL). DPPH Absorbance was monitored at 517 nm for OSe compounds (200 µL, 1 mM in MeOH) and DPPH (400 µL) after 30 min. […]
1.1.3.2. The ABTS bioassay
The antioxidant activity of the investigated compounds was assessed using 2,2’-azino-bis(3-ethylbenzothiazoline-6-sulphonic acid (ABTS) method. The radical cation derived from ABTS was prepared by the reaction of 60 mM ABTS solution with 0.3 M manganese dioxide solution in 0.1M phosphate buffer, pH 7. Then, the mixture was shaken, centrifuged, filtered, and the absorbance (Acontrol ) of […]
the resulting green-blue solution (ABTS radical solution) was measured at wavelength 734 nm. Then, […] of 1 mg/ml test compound in phosphate-buffered methanol was added. The absorbance (Atest) was measured. The reduction in color intensity was expressed as % inhibition. The % inhibition for each […]
compound is calculated from the following equation
Inhibition% = (Acontrol-Asample)/(Acontrol)*100
Ascorbic acid (vitamin C) was used as a standard antioxidant (positive control). A blank sample was run […]
without ABTS and using MeOH/phosphate buffer (1:1) instead of the sample. A negative control sample […]
was run with MeOH/phosphate buffer (1:1) instead of a tested compound.

[2] = DPPH radical scavenging assay; details: for antioxidant (scavenging) activity in the DPPH assay: compounds 200 µL, 1 mM in MeOH, DPPH 400 µL, 30 min, absorbance at 517 nm
Protocol: as §1, §2, §3
1.1.3. The antioxidant activity
1.1.3.1. The DPPH bioassay
The hydrogen atom or electron donation ability of the corresponding compounds was measured by estimating the bleaching of the purple color of a methanolic solution of DPPH [5]. This spectrophotometric assay uses stable DPPH. reagent. The sample was prepared by adding […] of the OSe compounds (1 mM in methanol) to […] DPPH in methanol. After 30 min of incubation in the dark, the absorbance was read against a blank at […]. Ascorbic acid (vitamin C) and ebselen were used as standard antioxidants (positive control). A blank sample was run without DPPH. A negative control sample was run using methanol instead of the sample. The radical scavenging activity was calculated using the following equation:
Inhibition%= (Ablank-Asample)/(Ablank)*100. […]

C. albicans [3] = assay: MIC by microdilution, C. albicans; assay type: cell-based; details: Candida albicans; microdilution method; read-out: MIC C. albicans
Description: (§4) The encouraging antitumor properties of the OSe compounds motivated us to evaluate their corresponding antimicrobial activities against the C. albicans fungal strain, S. aureus Gram-positive bacteria, and E. coli Gram-negative bacteria. Therefore, we applied the agar diffusion and minimum inhibitory concentration (MIC) methods using clotrimazole antifungal and ampicillin antibacterial drugs as standards.
(§5) The products’ antimicrobial properties were examined according to the previously reported method, via agar well diffusion assay against E. coli, S. aureus, and C. albicans. A microdilution method was also used to record MICs (M), following the previously reported procedure. Experimental details can be found in the Supplementary Materials.
Briefly, a concentration of 1 mM was prepared for each compound by dissolving in DMSO. Paper discs of standard size […] were sterilized in an autoclave and soaked in 9 µL of the test compounds, and placed in the Petri dishes, which in turn contain a nutrient media (agar 9 g, peptone 5 g, and beef extract 3 g) seeded with the dedicated strain. Incubation lasted for 13 h at 36 0C. […]

C. albicans [4] = assay: Agar diffusion assay, C. albicans; assay type: cell-based, Candida albicans; details: for zone of inhibition at 20 µM: Candida albicans, read-out: C. albicans ZID (inhibition zone diameter); for C. albicans IA% (activity index): ratio of inhibition zone of compound to that of positive control (clotrimazole)
S. aureus [5] = assay: Agar diffusion assay, S. aureus; assay type: cell-based; details: Staphylococcus aureus; 6-mm disks soaked with 20 μM of the OSe agents; read-out: S. aureus ZID (inhibition zone diameter)
S. aureus [6] = assay: Agar diffusion assay, S. aureus; assay type: cell-based, Staphylococcus aureus; parameters: concentration or dose not given beside the values; details: ratio of inhibition zone of compound to that of positive control (ampicillin)
Description: as §4
as §5, with “Materials. […]” for “Materials.”
1.1.2. The antimicrobial activity
The antimicrobial activities of the OSe compounds were evaluate d against C. albicans yeast as well as E. coli gram-negative and S. aureus gram-positive bacteria employing the agar well diffusion assay.
Briefly, a concentration of 1 mM was prepared for each compound by dissolving in DMSO. Paper discs of standard size […] were sterilized in an autoclave and soaked in 9 µL of the test compounds, and placed in the Petri dishes, which in turn contain a nutrient media (agar 9 g, peptone 5 g, and beef extract 3 g) seeded with the dedicated strain. Incubation lasted for 13 h at 36 0C.
Experiments were replicated three times and the antifungal clotrimazole and antibiotic ampicillin […]

MCF-7 cells = assay: MTT antiproliferative assay, MCF-7 cells; assay type: cell-based; details: for IC50: Homo sapiens, MCF7, 24 h, read-out: MCF7 IC50; for MCF7 TI (therapeutic index): ratio of IC50 against WI38 cells to IC50 against MCF-7 cells
Description: (§6) Recently, OSe agents have attracted interest due to their potential chemoprotective and antitumor properties. […] Therefore, we estimated the OSe agents’ antiproliferative activities against different cancer cells, i.e., MCF-7 and HepG2 cells and healthy lung fibroblast WI-38 cells, using the MTT assay. The drug doxorubicin was employed as the standard. The corresponding therapeutic indices (TI) are described as the proportion of the WI38 cells IC50 to the IC50 of the cancer cell (e.g., MCF-7 and HepG2) (Table 1).
(§7) The products’ anticancer activity was examined using the MTT assay against breast (MCF-7) carcinoma cells, liver (HepG2), and normal WI-38 cells, following the previously reported method. Experimental details can be found in the Supplementary Materials.
(§8) 1.1. The biological assays
(§9) 1.1.1. The anticancer activity
(§10) The breast adenocarcinoma (MCF-7), Hepatocellular carcinoma (HEPG-2), and normal fibroblast (WI-38) cells were obtained from ATCC via Holding company for biological products and vaccines (VACSERA), Cairo, Egypt. The reagents […] medium, MTT, DMSO, and fetal bovine serum was obtained from Sigma Aldrich. Dulbecco’s modified Eagle’s medium was used as the culture medium for the cells, and the cytotoxicity was evaluated using the reported MTT assay. Doxorubicin was used as the positive reference, and the IC50 values were obtained from the corresponding dose-response curve.
(§11) This colorimetric assay is based on converting the yellow tetrazolium bromide (MTT) to a purple formazan derivative by mitochondrial succinate dehydrogenase in viable cells. Cell lines were cultured in […] medium with 10% fetal bovine serum. Antibiotics added were 100 units/ml penicillin and 100µg/ml streptomycin at 37 C in a 5% Co2 incubator. The cell lines were seeded in a 96-well plate at a density of 1.0x10^4 cells/well. at 37 C for 48 h under 5% Co2. After incubation, the cells were treated with different concentrations of compounds and incubated for 13 […]
(§12) Finally, dimethyl sulfoxide (DMSO) in the volume of 100 µl is added to each well to dissolve the purple formazan formed. The colorimetric assay is measured and recorded at an absorbance of 570 […]
(§13) The percentage of the relative cell viability was calculated as (A570 of treated samples/A570 of the untreated sample) X 100. […]

WI-38 cells = assay: MTT cytotoxicity assay, normal lung fibroblast WI-38 cells; assay type: cell-based; details: Homo sapiens, WI-38, 24 h, read-out: WI38 IC50
Description: as §6, §7, §8, §9, §10, §11, §12, §13

HepG2 cells = assay: MTT antiproliferative assay, HepG2 cells; assay type: cell-based; details: for IC50: Homo sapiens, HepG2, 24 h, read-out: HepG2 IC50; for HepG2 TI (therapeutic index): ratio of IC50 against WI38 cells to IC50 against HepG2 cells
Description: Recently, OSe agents have attracted interest due to their potential chemoprotective and antitumor properties. We have developed several OSe compounds with promising antioxidant, antimicrobial, and antitumor properties. Therefore, we estimated the OSe agents’ antiproliferative activities against different cancer cells, i.e., MCF-7 and HepG2 cells and healthy lung fibroblast WI-38 cells, using the MTT assay. The drug doxorubicin was employed as the standard. The corresponding therapeutic indices (TI) are described as the proportion of the WI38 cells IC50 to the IC50 of the cancer cell (e.g., MCF-7 and HepG2) (Table 1).
as §7, §8, §9, §10, §11
Finally, dimethyl sulfoxide (DMSO) in the volume of 100 µl is added to each well to dissolve the purple formazan formed. The colorimetric assay is measured and recorded at an absorbance of 570 nm using a plate reader (EXL 800, USA). The percentage of the relative cell viability was calculated as (A570 of treated samples/A570 of the untreated sample) X 100. […]

IC50 ([1]; concentration causing 50% decrease in absorbance, ABTS assay) | IC50 ([2]; concentration causing 50% decrease in absorbance, DPPH assay) | MIC (C. albicans [3]) | SMILES | antioxidant (scavenging) activity in the ABTS assay [1] | antioxidant (scavenging) activity in the DPPH assay [2] | zone of inhibition at 20 µM (C. albicans [4]; 6-mm disks soaked with 20 μM of the OSe agents) | C. albicans IA% (activity index) (C. albicans [4]) | zone of inhibition at 20 µM (S. aureus [5]) | zone of inhibition at 20 µM (C. albicans [4]) | S. aureus IA% (activity index) (S. aureus [6]) | IC50 (MCF-7 cells) | MCF7 TI (therapeutic index) (MCF-7 cells) | IC50 (WI-38 cells) | IC50 (HepG2 cells) | HepG2 TI (therapeutic index) (HepG2 cells)
28.16 ± 0.19 µM | 19.18 ± 0.13 µM |  | O=C1O[C@H]([C@@H](O)CO)C(O)=C1O [Vitamin C, ascorbic acid, reference compound] | 88.4% | 94.5% |  |  |  |  |  |  |  |  |  | 
 |  | 2 µM (≈ 0.69 µg/mL) | Clc1ccccc1C(c1ccccc1)(c1ccccc1)n1ccnc1 [Clotrimazole, clotrimazole, reference compound] |  |  | 24 mm | 100% |  |  |  |  |  |  |  | 
 |  |  | O=CNc1ccc([Se]CC(=O)NOCc2ccccc2)cc1 [Compound 10, N-(benzyloxy)-2-((4-formamidophenyl)selanyl)acetamide] | 64.7% | 64.2% |  | 29.2% | 6 mm | 7 mm | 28.6% | 49.3 ± 3.1 µM | 0.8 | 37.4 ± 2.6 µM | 83.4 ± 4.2 µM | 0.5
 |  |  | O=C(C[Se]c1ccc(N2C(=O)c3ccccc3C2=O)cc1)NOCc1ccccc1 [Compound 13, N-(benzyloxy)-2-((4-(1,3-dioxoisoindolin-2-yl)phenyl)selanyl)acetamide] | 87.0% | 89.4% |  | 8.3% |  | 2 mm |  | 91.6 ± 4.6 µM | 0.8 | 61.6 ± 3.8 µM | > 100 µM | 0.6

Reference: publication PMC10059083, “Design, Synthesis, and Biological Evaluation of Novel Hydroxamic Acid-Based Organoselenium Hybrids” (Pharmaceuticals, 2023)
